From patent US20260007634A1, “PHARMACEUTICAL COMPOSITIONS FOR THE TREATMENT OF ALLERGIC DISEASES” (KINKI UNIVERSITY, priority 2022, published 2026)

Experiments:
Type in all cases: in vivo, mouse
IgE antibody [1] = assay: Serum IgE antibody ELISA, bronchial asthma mice; details: OVA bronchial asthma; serum day 28; oral 10 mg/kg (dexamethasone 2 mg/kg); control 73, vehicle 117
Procedure: (§1) A 0.2 mL dose of 50 μg ovalbumin (OVA) and 2 mg Alum mixture was administered to 6-week-old female Balb/c mice (Japan SLC Inc.) (day 0 of the example). Alum was used as an adjuvant. Seven days later and 14 days later, the Balb/c mice were immunized again with 0.2 mL injections of the above mixture. Starting on day 20, mice were orally treated with 10 mg/kg of norathyriol, 10 mg/kg of mangiferin 8a, 10 mg/kg of tofacitinib (JAK inhibitor), 2 mg/kg of dexamethasone (steroid) and 10 mg/kg of olopatadine (antihistamine) daily for 8 consecutive days. Starting on day 21, 400 μg OVA was administered intranasally, and cough was measured on day 27. Note that tofacitinib, dexamethasone, and olopatadine are currently in clinical use in allergic rhinitis and were used as control drugs in this example.
Serum was collected from day 28 mice in Examples 14, and IgE antibody production was measured by enzyme-linked immunosorbent assay (ELISA). This assay was performed using a mouse IgE antibody ELISA kit (R&D).

IL-5 = assay: Serum IL-5 ELISA, bronchial asthma mice; details: OVA bronchial asthma; serum day 28; oral 10 mg/kg (dexamethasone 2 mg/kg); control 80, vehicle 992
Procedure: as §1
Serum was collected from day 28 mice in Examples 14, and IL-5 production was measured by enzyme-linked immunosorbent assay (ELISA). This assay was performed using a mouse IL-5 ELISA kit (R&D).

IL-17 = assay: Serum IL-17 ELISA, bronchial asthma mice; details: OVA bronchial asthma; serum day 28; oral 10 mg/kg (dexamethasone 2 mg/kg); control 80, vehicle 898
Procedure: as §1
Serum was collected from day 28 mice in Examples 14, and IL-17 production was measured by enzyme-linked immunosorbent assay (ELISA). This assay was performed using a mouse IL-17 ELISA kit (R&D).

IgE antibody [2] = assay: Serum IgE antibody ELISA, cedar pollinosis mice; details: serum day 28, oral 10 mg/kg (dexamethasone 2 mg/kg), control 71, vehicle 207
Procedure: A 0.2 mL dose of 100 μg cedar pollen and 1 mg Alum mixture was administered to 6-week-old female Balb/c mice (Japan SLC Inc.) (day 0 of the example). Alum was used as an adjuvant. Seven days later and 14 days later, the Balb/c mice were immunized again with 0.2 mL injections of the above mixture. Starting on day 20, mice were orally treated with 10 mg/kg of norathyriol, 10 mg/kg of mangiferin 8a, 10 mg/kg of tofacitinib (JAK inhibitor), 2 mg/kg of dexamethasone (steroid) and 10 mg/kg of olopatadine (antihistamine) daily for 8 consecutive days. Starting on day 21, 500 μg cedar pollen was administered intranasally, and nose-scratching behavior was measured on day 27. Note that tofacitinib, dexamethasone, and olopatadine are currently in clinical use in cedar pollinosis and were used as control drugs in this example.
Serum was collected from day 28 mice in Examples 28 and 29, and IgE antibody production was measured by enzyme-linked immunosorbent assay (ELISA). This assay was performed using a mouse IgE antibody ELISA kit (R&D).

IL-4 = assay: Serum IL-4 ELISA, food allergy mice; details: OVA food allergy; serum day 28; oral 10 mg/kg (dexamethasone 2 mg/kg); control 210, vehicle 1154
Procedure: (§2) A 0.2 mL dose of 10 μg ovalbumin (OVA) and 1 mg Alum mixture was administered to 6-week-old female Balb/c mice (Japan SLC Inc.) (day 0 of the example). Alum was used as an adjuvant. Seven days later, the Balb/c mice were immunized again with a 0.2 mL injection of the above mixture. Starting on day 14, mice were orally treated with 10 mg/kg of norathyriol, 10 mg/kg of mangiferin 8a, 10 mg/kg of tofacitinib (JAK inhibitor), 2 mg/kg of dexamethasone (steroid) and 10 mg/kg of olopatadine (antihistamine) daily for 14 consecutive days. Starting on day 14, 10 mg OVA was administered orally every other day […], and the frequency of diarrhea was measured after the final administration on day 28. Note that tofacitinib, dexamethasone, and olopatadine are currently in clinical use in food allergy and were used as control drugs in this example.
Serum was collected from day 28 mice in Examples 21, and IL-4 production was measured by enzyme-linked immunosorbent assay (ELISA). This assay was performed using a mouse IL-4 ELISA kit (R&D).

BAFF = assay: Serum BAFF ELISA, food allergy mice; details: OVA food allergy; serum day 28; oral 10 mg/kg (dexamethasone 2 mg/kg); control 134, vehicle 845
Procedure: as §2
Serum was collected from day 28 mice in Examples 21, and BAFF production was measured by enzyme-linked immunosorbent assay (ELISA). This assay was performed using a mouse BAFF ELISA kit (R&D).

[3] = system: Balb/c mice with ovalbumin-induced allergic rhinitis; assay: Nose scratching behavior, ovalbumin-induced allergic rhinitis mice; details: OVA allergic rhinitis; oral daily 8 days from day 20, 10 mg/kg (dexamethasone 2 mg/kg); measured day 27; vs vehicle group
Procedure: as §1, with “nose-scratching behavior” for “cough”
(§3) The group that was just immunized with OVA is called the subject group, the one that received norathyriol is called the norathyriol group, the one that received mangiferin 8a is called the mangiferin 8a group, the one that received tofacitinib is called the tofacitinib group, the one that received dexamethasone is called the dexamethasone group, and the one that received olopatadine is called the olopatadine group. Each group consisted of five animals.

[4] = system: Balb/c mice with ovalbumin-induced bronchial asthma; assay: Cough, ovalbumin-induced bronchial asthma mice; details: OVA bronchial asthma; oral daily 8 days from day 20, 10 mg/kg (dexamethasone 2 mg/kg); measured day 27; vs vehicle group
Procedure: as §1, §3

Compound	amount of IgE antibody (IgE antibody [1]) [ng/mL]	amount of IL-5 (IL-5) [pg/mL]	amount of IL-17 (IL-17) [pg/mL]	amount of IgE antibody (IgE antibody [2]) [ng/mL]	amount of IL-4 (IL-4) [pg/mL]	amount of BAFF (BAFF) [pg/mL]	number of nose scratches [3]	number of coughs [4]
C[C@@H]1C[C@H]2[C@@H]3CCC4=CC(=O)C=C[C@]4(C)[C@@]3(F)[C@@H](O)C[C@]2(C)[C@@]1(O)C(=O)CO [dexamethasone]	34	286	257	154	415	251		
CN(C)CC/C=C1/c2ccccc2COc2ccc(CC(=O)O)cc21 [olopatadine]	126	866	848	218	1054	715	significantly decreased the number of nose scratches	significantly decreased the number of coughs
O=c1c2cc(O)c(O)cc2oc2cc(O)cc(O)c12 [norathyriol, 1,3,6,7-tetrahydroxyxanthone]	88	601	530	156	694	426	significantly decreased the number of nose scratches	significantly decreased the number of coughs
C[C@@H]1CCN(C(=O)CC#N)C[C@@H]1N(C)c1ncnc2[nH]ccc12 [tofacitinib]	101	833	844	185	1015	598	significantly decreased the number of nose scratches	significantly decreased the number of coughs
